Values quoted from earlier work, collected in article PMC11711049 (Cancer Science, 2024).

Key:
cholangiocarcinoma = settings: first‐line, patients with cholangiocarcinoma; cited from earlier work
[1] = tested on: cholangiocarcinoma with an FGFR2 gene fusion or other rearrangement; settings: cholangiocarcinoma patients; cited from earlier work

| Compound | ORR (cholangiocarcinoma) [%] | median OS (cholangiocarcinoma) [months] | median PFS (cholangiocarcinoma) [months] | median OS [1] [months] | median PFS [1] [months] | response rate / ORR [1] [%] |
| --- | --- | --- | --- | --- | --- | --- |
| gemcitabine and cisplatin | 26 | 11.7 | 8.0 |  |  |  |
| CCN1C(=O)N(c2c(F)c(OC)cc(OC)c2F)Cc2cnc3[nH]c(CN4CCOCC4)cc3c21 [pemigatinib, Pemigatinib] |  |  |  | 21.1 | 6.9 | 35.5 |
